Reference: PubChem BioAssay AID1645866 (Buhrlage Lab, Dana-Farber Cancer Institute and Novartis …, 2021)
pIC50: −log10 of the molar value. The source made the active and inactive calls.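 The calls were made as follows: active = in confirmatory dose-response testing, peak deubiquitinase inhibition of 30% or more; inactive = the rest.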

biological target: Ubiquitin carboxyl-terminal hydrolase 28 (Homo sapiens) (UniProt Q96RU2); test: Ubiquitin-specific peptidase 28 DUB inhibitors, biochemical concentration-dependence assay, validation of primary screening hits (AID 1645866); details: purified USP28, ubiquitin-rhodamine fluorescence, 30 min
Sequence (Q96RU2 whole entry, looked up): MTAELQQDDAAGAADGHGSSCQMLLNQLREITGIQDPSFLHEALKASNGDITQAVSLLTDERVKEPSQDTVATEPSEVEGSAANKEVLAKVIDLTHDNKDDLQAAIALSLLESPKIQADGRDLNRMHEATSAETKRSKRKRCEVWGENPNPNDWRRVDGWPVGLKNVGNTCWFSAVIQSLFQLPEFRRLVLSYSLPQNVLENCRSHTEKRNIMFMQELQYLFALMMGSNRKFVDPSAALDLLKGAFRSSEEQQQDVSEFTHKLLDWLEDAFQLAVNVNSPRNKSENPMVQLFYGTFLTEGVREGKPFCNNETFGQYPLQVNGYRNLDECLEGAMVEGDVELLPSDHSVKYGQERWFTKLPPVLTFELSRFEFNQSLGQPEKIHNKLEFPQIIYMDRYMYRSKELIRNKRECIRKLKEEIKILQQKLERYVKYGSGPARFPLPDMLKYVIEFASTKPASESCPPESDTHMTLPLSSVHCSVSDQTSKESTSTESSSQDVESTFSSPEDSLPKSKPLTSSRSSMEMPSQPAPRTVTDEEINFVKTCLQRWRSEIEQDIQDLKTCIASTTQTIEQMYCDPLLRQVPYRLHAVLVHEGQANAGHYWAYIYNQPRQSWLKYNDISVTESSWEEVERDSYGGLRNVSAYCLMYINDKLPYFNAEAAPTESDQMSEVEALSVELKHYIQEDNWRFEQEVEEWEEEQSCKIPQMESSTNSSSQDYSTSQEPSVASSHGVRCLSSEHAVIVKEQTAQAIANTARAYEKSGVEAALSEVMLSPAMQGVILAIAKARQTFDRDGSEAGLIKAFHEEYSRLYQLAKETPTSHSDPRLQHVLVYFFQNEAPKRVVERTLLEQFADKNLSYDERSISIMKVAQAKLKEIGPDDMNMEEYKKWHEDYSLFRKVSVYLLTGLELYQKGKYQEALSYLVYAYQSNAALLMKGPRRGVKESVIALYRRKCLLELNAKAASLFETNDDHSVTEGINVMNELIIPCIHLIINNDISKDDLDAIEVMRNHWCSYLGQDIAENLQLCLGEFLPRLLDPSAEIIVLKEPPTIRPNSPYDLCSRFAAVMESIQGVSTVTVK

Compound | pIC50 | IC50
c1ccc(-n2nnc(-c3noc(-c4cccnc4)n3)c2-c2ccncc2)cc1 | 4.68 | –
Nc1ccc(F)c(NS(=O)(=O)c2ccccc2)c1 | – | > 50 µM (inactive)
COc1c(C)c(C(O)C(C)O)c2[nH]c3ccc(CC=C(C)C)cc3c2c1O (stereo not drawn) | 4.76 | –
CCc1c(C)c(C#N)c2nc3ccccc3n2c1N1CCN(C2CCCC2)CC1 | 4.91 | –
O=C(Cc1noc2ccccc12)NCC(=O)Nc1ccc(Cl)cc1 | 4.74 | –
CCC(C)(C)C1CCC2(CC1)N=C(N)Nc1nc3ccccc3n12 (stereo not drawn) | 4.45 | –
CCCOc1ccc(C(=O)Nc2ccc(S(=O)(=O)Nc3cc(C)nc(C)n3)cc2)cc1 | 4.50 | –
CCCc1nc2sc3c(NCCc4ccc(OC)c(OC)c4)ncnc3c2c2c1CCC2 | > 7.30 | –
COc1ccc(CNc2nn3c(-c4cncc(OC)c4)cnc3s2)cc1 | 5.58 | –
CSc1nc2ncn(CC(=O)Nc3cccc(Cl)c3)c(=O)c2s1 | – | > 50 µM (inactive)
Cn1cc(NC(=O)Nc2cccc3ccccc23)c2ccccc21 | 4.78 | –
Cc1ccccc1NC(=O)Nc1ccccc1OCc1cc(=O)n2cccc(C)c2n1 | 5.98 | –
Cn1c(SCc2ccccc2)nnc1-c1csc(-c2ccccc2)n1 | 4.50 | –
COc1cccc(NC(=O)C2CCC(CNS(=O)(=O)c3ccc4c(c3)C(C)(C)C(=O)N4C)CC2)c1 (stereo not drawn) | 5.58 | –
Cc1ccc(NC(=O)CSc2nc3c(cc2C#N)C(=O)CCC3)cc1 | 4.68 | –
O=C(NCc1ccc(-c2nc3cnccc3o2)cc1)c1ccccc1Br | – | > 50 µM (inactive)
Cn1nc(-c2nc(-c3ccccc3)no2)c2c1CCN(C(=O)C1CC1)C2 | – | > 50 µM (inactive)
O=C(CN1C(=O)NC2(CCCCC2)C1=O)Nc1ccc([N+](=O)[O-])cc1 | 4.48 | –
Cc1noc(-c2cc(=O)n(CC(=O)NCc3ccccc3F)c3ccccc23)n1 | 5.00 | –
COc1ccc(Cl)cc1N1C(=O)[C@H]2[C@@H](C1=O)[C@]1(C(=O)Nc3c(C)cc(C)cc31)N1CCC[C@@H]21 | – | > 50 µM (inactive)
O=C(Cn1nc2ccc(C(=O)NCc3ccccc3)cn2c1=O)Nc1ccc2c(c1)OCO2 | 4.47 | –
CN1CC2CN(C(=O)c3ccc(F)cc3)CCN2Cc2ccccc21 (stereo not drawn) | – | > 50 µM (inactive)
FC(F)(F)c1cccc(N2CCN(c3nc4ccccc4n4nnnc34)CC2)c1 | – | > 50 µM (inactive)
COc1cc(Cl)c(C)cc1NC(=O)Cn1c(=O)n(CC(=O)NCc2ccco2)c(=O)c2ccccc21 | 5.47 | –
CCN(CC)C(=O)c1sc(NC(=O)/C=C/c2c(F)cccc2Cl)c(C#N)c1C | 5.53 | –

Compound | pIC50 | IC50
O=c1ccc(-c2noc(-c3ccc4cc[nH]c4c3)n2)c[nH]1 | – | > 50 µM (inactive)
COc1ccc(NC(=O)c2nnn(-c3cccc(C)c3)c2C)cc1 | 4.58 | –
COc1cc(OC)cc(-c2nc(-c3cn(-c4cccc(F)c4)nn3)no2)c1 | 6.32 | –
O=C(NCc1ccc(Cl)cc1)Nc1cccc2ccccc12 | 4.39 | –
CC(C)NS(=O)(=O)c1cccc2c(NC(=O)C(Cc3ccccc3)NC(=O)c3ccccc3)cccc12 (stereo not drawn) | – | > 50 µM (inactive)
COc1ccc(-c2ocnc2C(=O)NCc2ccc(F)cc2)cc1 | 5.09 | –
O=S1(=O)CCN(Cc2ccccc2)c2c(F)nc(N3CCCCC3)c(F)c21 | – | > 50 µM (inactive)
Cc1cc(C)c2cc(C(=O)NC3CCN(Cc4ccccc4)CC3)[nH]c2c1 | 4.86 | –
COc1ccc(CNC(=O)CCc2nnc3n(Cc4ccccc4Cl)c(=O)c4ccccc4n23)cc1 | 5.66 | –
CCc1ccc(NC(=O)COc2cccc(-n3cnnn3)c2)cc1 | 4.60 | –
FC(F)(F)c1cccc(CSc2ccc3nnc(-c4ccccn4)n3n2)c1 | 5.76 | –
COc1ccc(NC(=O)C2CCN(c3cncnc3N(C)C)CC2)cc1OC | 5.17 | –
Cc1cc(O)c(Oc2cc(C)cc(O)c2O)c(O)c1 | 4.82 | –
CCOC(=O)c1ccc(-n2c(=O)c(C#N)cc3c(=O)n4ccccc4nc32)cc1 | – | > 50 µM (inactive)
CCCc1c(C(=O)O)c(O[C@H]2O[C@H](C)[C@@H](OC)[C@H](OC)[C@@H]2OC)cc2cc3c(c(O)c12)C(=O)c1c(O)cc(O[C@@H]2O[C@@H](C)[C@H](O[C@H]4O[C@H](C)[C@@H](OC)[C@H](OC)[C@@H]4O)[C@@H](OC)[C@H]2O)cc1C3=O | – | > 50 µM (inactive)
CC1(C(=O)NC2CCCC2)Cn2c(cc3ccccc32)C(=O)N1c1ccc(F)cc1 (stereo not drawn) | 4.67 | –
CC(C)Cc1nc2sc3c(NCc4ccccc4)ncnc3c2c2c1COC(C)(C)C2 | 5.21 | –
Cn1c(CCNC(=O)c2[nH]nc3c2CCc2ccccc2-3)nc2ccccc21 | 4.63 | –
Cn1ccc2c(cc(C(=O)NCCC3=CCCCC3)n2C)c1=O | 4.68 | –
O=C(NCc1ccccc1Cl)C1CCCN(c2nc3ccsc3c(=O)s2)C1 (stereo not drawn) | 5.49 | –
COc1ccc(C2SCC(=O)Nc3c2c(=O)[nH]n3C2CCCCC2)cc1 (stereo not drawn) | 4.61 | –
O=C(NC1CCN(Cc2ccccc2)CC1)c1[nH]nc2c1CCc1ccccc1-2 | 5.20 | –
CCn1ccc2c(cc(C(=O)Nc3cccc(OC)c3)n2C)c1=O | 5.55 | –
O=C(COc1ccc(Cl)cc1Cl)Nc1ccccc1-c1nc2ccccc2[nH]1 | 5.62 | –
COc1ccc(-c2ccnc(-c3ccc(OCc4cccc(F)c4)cc3)n2)cc1 | – | > 50 µM (inactive)

Compound | pIC50 | IC50
COc1ccccc1S(=O)(=O)N1CC[C@@H]2CN(C)[C@@H]2C1 | 4.45 | –
O=C(COc1cccc(-n2cnnn2)c1)Nc1ccc2c(c1)OCCO2 | 4.50 | –
Cc1ccc2[nH]c(=O)c(CN(CC3CCCO3)S(=O)(=O)c3ccccc3)cc2c1 (stereo not drawn) | 4.61 | –
CCCc1cc(=O)n2[nH]c(COc3ccccc3)c(-c3ccccc3)c2n1 | 4.54 | –
Cc1ccc(C(=O)Nc2cc3c4c(c2)CC(=O)N4CCC3)cc1C | 5.20 | –
C[C@H](NC(=O)Cc1ccccc1F)c1nc2cc(-c3ccccc3F)ncn2n1 | – | > 50 µM (inactive)
O=C1CC(O)C(O)c2cccc(O)c21 (stereo not drawn) | 4.63 | –
O=C(Nc1cccc(C(F)(F)F)c1)c1cc2c(s1)-c1ccccc1OC2 | 5.17 | –
COc1ccc(C(=O)Nc2ccccc2C(=O)NCc2ccccc2)cc1 | 4.42 | –
O=C(Nc1cccc(Cl)c1)c1ncn2c1CNS(=O)(=O)c1ccccc1-2 | 4.87 | –
COc1cccc(CN2CCc3nc4nc(C)ccc4cc3C2)c1 | – | > 50 µM (inactive)
COc1ccc(-c2cc3nc([C@H](C)NC(=O)Cc4cccc(F)c4)nn3cn2)cc1 | 4.89 | –
COc1ccc(CC(=O)NCc2ccc3[nH]c(C)cc3c2)cc1 | – | > 50 µM (inactive)
Nc1c(C(=O)c2cccs2)oc2nc(-c3ccccc3)cc(-c3ccco3)c12 | – | > 50 µM (inactive)
O=C(COC(=O)c1ccc2[nH]c3c(c2c1)CCCC3)Nc1ccc2c(c1)OCO2 | 4.63 | –
COC1/C=C/OC2(C)Oc3c(C)c(O)c4c(c3C2=O)C(=O)C=C(NC(=O)/C(C)=C\C=C\C(C)C(O)C(C)C(O)C(C)C(OC(C)=O)C1C)C4=O (stereo not drawn) | 4.42 | –
O=c1c(NCCCN2CCCC2)nc2ccncc2n1Cc1ccccc1 | – | > 50 µM (inactive)
COc1cccc(-c2cc(C(=O)Nc3cc(C)n(Cc4ccc(Cl)cc4)n3)no2)c1 | 4.39 | –
CC(NC(=O)c1ccccc1)c1nc2ccccc2n1CC(=O)Nc1ccc2c(c1)OCO2 (stereo not drawn) | 5.68 | –
Cc1ccc(C(=O)NCc2ccc(C(=O)Nc3cccc(C)c3)o2)cc1 | 4.55 | –
Cc1c(C)n(-c2ccccc2)c2ncn(CC(=O)NCCCc3ccccc3)c(=O)c12 | 4.64 | –
Cc1cc(CSc2ncccc2C(=O)Nc2ccnn2Cc2cccnc2)no1 | – | > 50 µM (inactive)
COc1ccc(Cl)c(NC(=O)C2CC(=O)Nc3cc(-c4ccccc4)nn32)c1 (stereo not drawn) | 4.76 | –
